For orientation: IC50 means the concentration at which inhibition is half-maximal. As a reminder, the EC50 is the concentration that produces a half-maximal response. One may read the Emax as the greatest response seen or fitted, relative to the assay's reference.

Calls of active or inactive are those of the source. No cut-off for these calls is given here.

The text below walks through data of ChEMBL document CHEMBL6078695, “Design, synthesis, and biological evaluations of 5-aryl-pyrazole-3-carboxamide derivatives as selective CB2 receptor agonists for the treatment of colitis” (Eur J Med Chem, 2025).

Assay [1] has as its system Mus musculus. As to the kind of experiment: Antiinflammatory activity against DSS-induced colitis C57/BL6 mouse model assessed as reduction in disease activity index (DAI) score at 10 to 30 mg/kg, po administered for 9 days. It counts as functional, organism-based. The following applies: dose 10-30 mg/kg, time 9.0 day.
For assay [2], the target named is T1, Cannabinoid receptor 2 (Homo sapiens, UniProt P34972). As to the kind of experiment: Antagonist activity at human CB2 receptor expressed in CHO-K1 cells co-transfected with human Galpha16 assessed as intracellular calcium flux. Format: functional, cell-based.
In assay [3] the test system is Mus musculus. Kind of assay: Antiinflammatory activity against DSS-induced colitis C57/BL6 mouse model assessed as delay in hematochezia development at 10 to 30 mg/kg, po administered for 9 days. It counts as functional, organism-based. As to conditions: dose 10-30 mg/kg, time 9.0 day.
The target in assay [4] is T1, Cannabinoid receptor 2. As to the kind of experiment: Agonist activity at human CB2 receptor expressed in CHO cells assessed as reduction in ERK1/2 phosphorylation at 10 uM by Western blot analysis. Format: functional, cell-based.
Assay [5] has as its system Mus musculus. As to the kind of experiment: Antiinflammatory activity against DSS-induced colitis C57/BL6 mouse model assessed as disruption of epithelial layer in colon at 10 to 30 mg/kg, po administered for 9 days by H and E staining based analysis. As to conditions: dose 10-30 mg/kg, time 9.0 day. It counts as functional, organism-based.
The test system of assay [6] is Mus musculus. As to the kind of experiment: Antiinflammatory activity against DSS-induced colitis C57/BL6 mouse model assessed as reduction in body weight loss at 10 to 30 mg/kg, po administered for 9 days. It counts as functional, organism-based. As to conditions: dose 10-30 mg/kg, time 9.0 day.
The subject of assay [7] is Mus musculus. Kind of assay: Antiinflammatory activity against DSS-induced colitis in po dosed C57/BL6 mouse model assessed as suppression of TNF-alpha expression administered for 9 days by ELISA analysis. Format: functional, organism-based. As to conditions: dose 10-30 mg/kg, time 9.0 day. (An ELISA detects its analyte on a solid surface through an enzyme-linked reagent.)

Assay [8] concerns Mus musculus. Kind of assay: Antiinflammatory activity against DSS-induced colitis C57/BL6 mouse model assessed as reduction in inflammatory infiltration at 10 to 30 mg/kg, po administered for 9 days by H and E staining based analysis. Format: functional, organism-based. As to conditions: dose 10-30 mg/kg, time 9.0 day.
Assay [9] has as its target T2, Cannabinoid receptor 1 (Homo sapiens, UniProt P21554). As to the kind of experiment: Antagonist activity at human CB1 receptor expressed in CHO-K1 cells co-transfected with human Galpha16 assessed as intracellular calcium flux. It counts as functional, cell-based.
In assay [10] the target is T1, Cannabinoid receptor 2. As to the kind of experiment: Agonist activity at human CB2 receptor expressed in HEK293 cells assessed as forskolin-stimulated cAMP accumulation preincubated with compound for 10 mins followed by forskolin induction and measured after 2 hrs by HTRF analysis. Format: functional, cell-based. On the technique in general: cAMP levels reflect the balance of adenylyl cyclase and phosphodiesterase activity.

Assay [11] addresses T1, Cannabinoid receptor 2. Kind of assay: Antagonist activity at human CB2 receptor expressed in CHO cells co-transfected with human Galpha16 assessed as receptor desensitization by measuring reduction in calcium response. The following applies: filed as antagonist. Format: functional, cell-based.
For assay [12], the target named is T1, Cannabinoid receptor 2. As to the kind of experiment: Agonist activity at human CB2 receptor expressed in CHO-K1 cells co-transfected with human Galpha16 assessed as intracellular calcium flux at 10 uM relative to control. It counts as functional, cell-based. The following applies: filed as agonist.
Assay [13] relates to Mus musculus. As to the kind of experiment: Antiinflammatory activity against DSS-induced colitis in po dosed C57/BL6 mouse model assessed as suppression of IL-6 expression administered for 9 days by ELISA analysis. It counts as functional, organism-based. The following applies: dose 10-30 mg/kg, time 9.0 day.
Assay [14] deals with T2, Cannabinoid receptor 1. As to the kind of experiment: Agonist activity at human CB1 receptor expressed in CHO-K1 cells co-transfected with human Galpha16 assessed as intracellular calcium flux. Format: functional, cell-based.
For assay [15], the system named is Mus musculus. As to the kind of experiment: Antiinflammatory activity against DSS-induced colitis in po dosed C57/BL6 mouse model assessed as suppression of IL-1beta expression administered for 9 days by ELISA analysis. Format: functional, organism-based. As to conditions: dose 10-30 mg/kg, time 9.0 day.
Assay [16] concerns the target T1, Cannabinoid receptor 2. Kind of assay: Agonist activity at human CB2 receptor expressed in CHO-K1 cells co-transfected with human Galpha16 assessed as intracellular calcium flux. It counts as functional, cell-based. Background: Calcium flux is commonly read through the fluorescence of an indicator in the cells.
Assay [17] deals with T1, Cannabinoid receptor 2. Kind of assay: Antagonist activity at human CB2 receptor expressed in CHO cells co-transfected with human Galpha16 assessed as increase in intracellular calcium mobilization. It counts as functional, cell-based. As to conditions: filed as antagonist.
In assay [18] the test system is Mus musculus. As to the kind of experiment: Antiinflammatory activity against DSS-induced colitis C57/BL6 mouse model assessed as delay in diarrhoea development at 10 to 30 mg/kg, po administered for 9 days. The following applies: dose 10-30 mg/kg, time 9.0 day. Format: functional, organism-based.
Assay [19] has as its system Mus musculus. Kind of assay: Antiinflammatory activity against DSS-induced colitis C57/BL6 mouse model assessed as loss of goblet cells at 10 to 30 mg/kg, po administered for 9 days by H and E staining based analysis. It counts as functional, organism-based. The following applies: dose 10-30 mg/kg, time 9.0 day.
The target in assay [20] is T2, Cannabinoid receptor 1. As to the kind of experiment: Partial agonist activity at human CB1 receptor expressed in CHO-K1 cells co-transfected with human Galpha16 assessed as intracellular calcium flux. Format: functional, cell-based.
Assay [21] has as its target T2, Cannabinoid receptor 1. Kind of assay: Partial agonist activity at human CB1 receptor expressed in CHO-K1 cells co-transfected with human Galpha16 assessed as intracellular calcium flux at 10 uM relative to control. It counts as functional, cell-based. The following applies: filed as partial agonist.
Assay [22] addresses T1, Cannabinoid receptor 2. Kind of assay: Partial agonist activity at human CB2 receptor expressed in CHO-K1 cells co-transfected with human Galpha16 assessed as intracellular calcium flux at 10 uM relative to control. It counts as functional, cell-based. The following applies: filed as partial agonist.
Assay [23] has as its target T1, Cannabinoid receptor 2. As to the kind of experiment: Partial agonist activity at human CB2 receptor expressed in CHO-K1 cells co-transfected with human Galpha16 assessed as intracellular calcium flux. Format: functional, cell-based.

T2 sequence (P21554 whole entry): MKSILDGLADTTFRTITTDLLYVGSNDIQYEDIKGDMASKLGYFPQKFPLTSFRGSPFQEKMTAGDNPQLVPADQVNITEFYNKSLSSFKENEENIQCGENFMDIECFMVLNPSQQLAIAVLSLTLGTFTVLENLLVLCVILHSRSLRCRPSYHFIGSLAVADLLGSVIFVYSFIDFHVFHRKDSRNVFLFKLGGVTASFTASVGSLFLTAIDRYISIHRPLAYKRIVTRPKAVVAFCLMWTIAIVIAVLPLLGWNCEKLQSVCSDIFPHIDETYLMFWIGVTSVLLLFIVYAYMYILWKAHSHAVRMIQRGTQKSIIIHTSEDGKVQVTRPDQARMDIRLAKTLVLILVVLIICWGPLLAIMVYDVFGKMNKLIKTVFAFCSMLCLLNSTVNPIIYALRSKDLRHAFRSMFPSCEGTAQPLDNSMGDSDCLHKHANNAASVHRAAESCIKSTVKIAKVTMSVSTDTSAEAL
T1 sequence (P34972 whole entry): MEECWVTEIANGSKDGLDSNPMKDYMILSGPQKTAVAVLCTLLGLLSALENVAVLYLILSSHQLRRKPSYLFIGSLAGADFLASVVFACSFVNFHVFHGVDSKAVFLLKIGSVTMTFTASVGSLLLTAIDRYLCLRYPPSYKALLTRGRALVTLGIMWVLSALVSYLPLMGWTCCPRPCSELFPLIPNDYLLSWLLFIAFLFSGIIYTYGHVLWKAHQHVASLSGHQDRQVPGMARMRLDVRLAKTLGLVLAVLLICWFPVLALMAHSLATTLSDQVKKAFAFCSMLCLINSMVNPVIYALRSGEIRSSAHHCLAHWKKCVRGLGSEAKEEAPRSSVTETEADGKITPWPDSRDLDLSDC

As for `CCCCn1nc(C(=O)NC(C)(C)CO)cc1-c1cccs1`, the outcome in the assay on Mus musculus [1], with Mus musculus [3], in the assay on Mus musculus [5], with Mus musculus [6], in the assay on Mus musculus [8] and on Cannabinoid receptor 2 [11] was Active. The outcome at Cannabinoid receptor 2 [17], in the assay with Mus musculus [18] and in the assay with Mus musculus [19] was Active. The IC50 at Cannabinoid receptor 2 [2] and at Cannabinoid receptor 1 [9] was above 100000 nM throughout. Further, the outcome at Cannabinoid receptor 2 [4] was inactive. Further, the Activity result in the assay on Mus musculus [7], with Mus musculus [13] and in the assay with Mus musculus [15] was “Dose-dependent-effect” each time. Moreover, the values for the EC50 at Cannabinoid receptor 2 [10], on Cannabinoid receptor 1 [14] and at Cannabinoid receptor 2 [16] were 15.1 nM, above 100000 nM and 16.2 nM, respectively. On Cannabinoid receptor 2 [12], the Emax was 90%.

With `CCCCCn1nc(C(=O)NC(C)(C)CO)cc1-c1ccco1`, the EC50 was 957 nM at Cannabinoid receptor 1 [20] and 56 nM at Cannabinoid receptor 2 [23]. The Emax was 80% on Cannabinoid receptor 1 [21] and 50% on Cannabinoid receptor 2 [22]. Besides, the IC50 at Cannabinoid receptor 1 [9] was above 100000 nM.
